In patent US20240002362A1, “DEUTERATED 2-ARYLHETEROCYCLE-3-OXO-2,3- DIHYDROPYRIDAZINE-4-CARBOXAMIDE INHIBITOR AND PREPARATION METHOD THEREFOR AND APPLICATION THEREOF” (Shanghai Zelgen Pharma. Tech Co., Ltd., priority 2020, published 2024):

Tests used:
Format in all cases: in vivo
[1] = Pharmacokinetic test and evaluation in mice; settings: mouse, po; male ICR mice, gavage 2 mg/kg, plasma, n = 4, mean
Method: Pharmacokinetic Test and Evaluation in Mice
(§1) After male ICR mice weighing about 20-30 g were fasted overnight, the mice were gavaged with 2 mg/kg of a solution of the compound of the present invention [CMC/TW80 as a carrier]. Blood was collected 0.5, 1.0, 2.0, 4.0, 6.0, 8.0, 12 and 24 h after the administration of the compound of the present invention, respectively, and the concentration of the compound of the present invention in plasma was determined by LC/MS/MS.

[2] = Pharmacokinetic test and evaluation in rats; settings: rat, po; male SD rats, gavage 2 mg/kg, plasma, n = 4, mean
Method: Pharmacokinetic Test and Evaluation in Rats
as §1, with “SD rats” for “ICR mice”, “220” for “20-30”, “rats” for “mice”

[3] = Pharmacokinetic test and evaluation in beagle dogs; settings: dog, po; male beagle dogs, gavage 2 mg/kg, plasma, n = 4, mean
Method: Pharmacokinetic Test and Evaluation in Beagle Dogs
as §1, with “beagle dogs” for “ICR mice”, “6-7 Kg” for “20-30 g”, “beagle dogs” for “mice”

[4] = tested on: mouse colon cancer cells CT26.WT; assay: Pharmacodynamic test of anti-tumor activity, subcutaneous transplantation cancer model CT26.WT; settings: CT26.WT subcutaneous in nude mice; for TV (mm^3) (Tumor Volume) Day 0: Day 0 (baseline at grouping), 30 mg/Kg daily gavage; for % TGI (Tumor Growth Inhibition) / TV (mm^3) (Tumor Volume) Day 17: Day 17, 30 mg/Kg daily gavage
Method: Pharmacodynamic Test and Evaluation of Anti-Tumor Activity
1. Subcutaneous Transplantation Cancer Model CT26.WT
5×10^5/100 uL of mouse colon cancer cells CT26.WT were subcutaneously inoculated into the right back of nude mice. The mice were monitored daily for health condition, and the measurement was started when tumors grew to be palpable. The tumor volume was calculated by adopting the following formula: 0.5×L×W^2, wherein L and W represent tumor length and width, respectively. When the tumor grew to about 50 mm^3, the mice were randomly grouped. The mice were gavaged daily with a solution of the compound at a corresponding dose (30 mg/Kg) [CMC/TW80 as a carrier], and at the same time, the general state of the mice was monitored. After the administration was started, the mice were weighed twice in the first week, and the tumor volume was measured twice; from the second week, the mice were weighed three times a week, and the tumor volume was measured three times.

Structure (SMILES) | AUC(0-t) [1] [ng·h/mL] | Cmax [1] [ng/mL] | AUC(0-t) [2] [ng·h/mL] | Cmax [2] [ng/mL] | AUC(0-t) [3] [ng·h/mL] | Cmax [3] [ng/mL] | TV (mm^3) (Tumor Volume) Day 0 [4] | % TGI (Tumor Growth Inhibition) [4] [%] | TV (mm^3) (Tumor Volume) Day 17 [4]
[2H]C([2H])(O)[C@H](C)NC(=O)c1cc(-c2ccc(Cl)cc2)nn(-c2cnn(C)c2)c1=O [Example 7, (S)-6-(4-chlorophenyl)-N-(1-hydroxypropan-2-yl-1,1-d2)-2-(1-methyl-1H-pyrazole-4-yl)-3-oxo-2,3-dihydropyridazine-4-carboxamide] | 2460 | 351 | 736 | 96.6 |  |  |  |  | 
[2H]C([2H])(O)[C@H](C)NC(=O)c1cc(-c2ccc(Cl)cc2)nn(-c2cnn(C([2H])([2H])[2H])c2)c1=O [Example 8, (S)-6-(4-chlorophenyl)-N-(1-hydroxypropan-2-yl-1,1-d2)-2-(1-(methyl-d3)-1H-pyrazole-4-yl)-3-oxo-2,3-dihydropyridazine-4-carboxamide] | 2620 | 351 | 1390 | 230 | 1880 | 294 | 55.68 | 50.5 | 1117.93
[2H]C([2H])([2H])n1cc(-n2nc(-c3ccc(Cl)cc3)cc(C(=O)N[C@@H](C)CO)c2=O)cn1 [Example 2, (S)-6-(4-chlorophenyl)-N-(1-hydroxypropan-2-yl)-2-(1-(methyl-d3)-1H-pyrazole-4-yl)-3-oxo-2,3-dihydropyridazine-4-carboxamide] | 850 | 241 | 990 | 146 |  |  |  |  | 
C[C@@H](CO)NC(=O)c1cc(-c2ccc(Cl)cc2)nn(-c2cnn(C)c2)c1=O [BAY-2416964, reference compound] | 1490 | 348 | 624 | 99.5 | 995 | 211 | 55.81 | 24.7 | 1670.91
